Reference: patent EP0993437B1, “2-(4-BROMO OR 4-IODO PHENYLAMINO) BENZOIC ACID DERIVATIVES AND THEIR USE AS MEK INHIBITORS” (Warner-Lambert Company LLC, priority 1997, dated 1999)

Columns and labels:
MAP kinase = assay: Whole cell MAP kinase assay (In Vivo, Cell Culture); assay type: cell-based
Procedure: Cells were then serum-deprived overnight. Cells were exposed to the desired concentrations of compound or vehicle (DMSO) for 30 minutes, followed by addition of a growth factor, for example, PDGF (100 ng/mL). After a 5-minute treatment with the growth factor, cells were washed with PBS, then lysed in a buffer consisting of 70 mM NaCl, 10 mM HEPES (pH 7.4), 50 mM glycerol phosphate, and 1% Triton X-100. Lysates were clarified by centrifugation at 13,000 × g for 10 minutes. Five micrograms of the resulting supernatants were incubated with 10 µg microtubule associated protein-2 (Map2) for 15 minutes at 30°C in a final volume of 25 µL containing 50 mM Tris (pH 7.4), 10 mM MgCl2, 2 mM EGTA and 30 µM [γ-^32P]ATP, Reactions were terminated by addition of Laemmli sample buffer.

MEK = assay: Cascade assay for inhibitors of the MAP kinase pathway (In Vitro); assay type: biochemical
Procedure: Incorporation of ^32P into myelin basic protein (MBP) was assayed in the presence of a glutathione S-transferase fusion protein containing p44MAP kinase (GST-MAPK) and a glutathione S-transferase fusion protein containing p45MEK (GST-MEK). The assay solution contained 20 mM HEPES, pH 7.4, 10 mM MgCl2, 1-mM MnCl2, 1 mM EGTA, 50 µM [γ-^32P]ATP, 10 µg GST-MEK, 0.5 µg GST-MAPK and 40 µg MBP in a final volume of 100 µL. […] Compounds were assessed at 10 µM for ability to inhibit incorporation of ^32P.
To ascertain whether compounds were inhibiting GST-MEK or GST MAPK, two additional protocols were employed. In the first protocol, compounds were added to tubes containing GST-MEK, followed by addition of GST-MAPK, MBP and [γ-^32P]ATP.

Row | Compound | IC50 (MEK) | also measured
1 | Cc1cc(I)ccc1Nc1cccc(F)c1C(=O)O [Example 26, 2-Fluoro-6-(4-iodo-2-methyl-phenylamino)-benzoic acid] | 2610 nM | inhibition at 30 µM (MAP kinase): 50%
2 | Cc1cc(I)ccc1Nc1cc([N+](=O)[O-])ccc1C(=O)O [Example 30, 2-(4-Iodo-2-methyl-phenylamino)-4-nitro-benzoic acid] |  | IC50 (MAP kinase): 10000 nM; In Vitro % Inhibition (MEK; compounds assessed at 10 µM): 105%
3 | Cc1cc(I)ccc1Nc1ccccc1C(=O)O [Example 19, 2-(4-Iodo-2-methyl-phenylamino)-benzoic acid] | 524 nM | inhibition at 30 µM (MAP kinase): 50%
4 | Cc1cc(I)ccc1Nc1c(C(=O)O)cc(F)c(F)c1F [Example 2, 3,4,5-Trifluoro-2-(4-iodo-2-methyl-phenylamino)-benzoic acid] | 14 nM | IC50 (MAP kinase): 3000 nM
5 | Cc1cc(I)ccc1Nc1c(C(=O)O)ccc(F)c1F [Example 3, 3,4-Difluoro-2-(4-iodo-2-methyl-phenylamino)-benzoic acid] | 11.1 nM | IC50 (MAP kinase): 10000 nM
6 | COc1ccc(Nc2ccc(I)cc2)c(C(=O)O)c1 [Example 24, 2-(4-Iodo-phenylamino)-5-methoxy-benzoic acid] | 1940 nM | 
7 | Cc1cc(I)ccc1Nc1cccc(Cl)c1C(=O)O [Example 29, 2-Chloro-6-(4-iodo-2-methyl-phenylamino)-benzoic acid] | 5330 nM | 
8 | Cc1cc(I)ccc1Nc1ccc([N+](=O)[O-])cc1CO [Example 51, [2-(4-Iodo-2-methyl-phenylamino)-5-nitro-phenyl]-methanol] | 887 nM | 
9 | Cc1cc(I)ccc1Nc1ccc(I)cc1C(=O)O [Example 21, 5-Iodo-2-(4-iodo-2-methyl-phenylamino)-benzoic acid] | 569 nM | 
10 | O=C(O)c1cc(Cl)ccc1Nc1ccc(I)cc1Cl [Example 5, 5-Chloro-2-(2-chloro-4-iodo-phenylamino)-benzoic acid] | 66 nM | 
11 | Cc1cc(I)ccc1Nc1ccc(Br)cc1C(=O)NCCO [Example 188, 5-Bromo-N-(2-hydroxy-ethyl)-2-(4-iodo-2-methyl-phenylamino)-benzamide] | 771 nM | 
12 | O=C(O)c1cc([N+](=O)[O-])ccc1Nc1ccc(I)cc1Br [Example 14, 2-(2-Bromo-4-iodo-phenylamino)-5-nitro-benzoic acid] | 179 nM | 
13 | Cc1cc(I)ccc1Nc1c(C(=O)O)cc(Br)c(F)c1F [Example 4, 5-Bromo-3,4-difluoro-2-(4-iodo-2-methyl-phenylamino)-benzoic acid] | 5 nM | IC50 (MAP kinase): 1000 nM
14 | Cc1cc(I)ccc1Nc1cc(F)ccc1C(=O)O [Example 1, 4-Fluoro-2-(4-iodo-2-methylphenylamino)benzoic acid] | 19 nM | 
15 | CCCNC(=O)c1ccc(F)cc1Nc1ccc(I)cc1C [Example 41, 4-Fluoro-2-(4-iodo-2-methyl-phenylamino)-N-propyl-benzamide] | 872 nM | 
16 | Cc1cc(I)ccc1Nc1ccc(Cl)cc1CO [Example 50, [5-Chloro-2-(4-iodo-2-methyl-phenylamino)-phenyl]-methanol] | 179 nM | 
17 | 5-Fluoro-N-{3-[4-(2-hydroxy-ethyl)-piperazin-1-yl]-propyl}-2-(4-iodo-2-methyl-phenylamino)-benzamide [Example 90] | 604 nM | 
18 | O=C(O)c1ccc(F)cc1Nc1ccc(I)cc1I [Example 216, 2-(2,4-Diiodo-phenylamino)-4-fluoro-benzoic acid] | 1000 nM | 

Row | Compound | IC50 (MEK) | also measured
19 | 5-Bromo-3,4-difluoro-N-(2-hydroxy-ethyl)-2-(4-iodo-2-methyl-phenylamino)-benzamide [Example 53] | 47 nM | 
20 | Cc1cc(I)ccc1Nc1ccc(Br)cc1C(=O)O [Example 8, 5-Bromo-2-(4-iodo-2-methyl-phenylamino)-benzoic acid] | 86 nM | 
21 | Cc1cc(I)ccc1Nc1ccc(Cl)cc1C(=O)NCCN1CCCC1 [Example 96, 5-Chloro-2-(4-iodo-2-methyl-phenylamino)-N-(2-pyrrolidin-1-yl-ethyl)-benzamide] | 374 nM | 
22 | Cc1cc(I)ccc1Nc1c(C(=O)NN(C)C)cc(Br)c(F)c1F [Example 223, 5-Bromo-3,4-difluoro-2-(4-iodo-2-methyl-phenylamino)-benzoic acid N',N'-dimethyl-hydrazide] | 43 nM | 
23 | Cc1c(Nc2cc(F)ccc2C(=O)O)ccc(I)c1F [Example 10, 4-Fluoro-2-(3-fluoro-4-iodo-2-methyl-phenylamino)-benzoic acid] | 101 nM | 
24 | O=C(O)c1ccc(F)cc1Nc1ccc(I)cc1F [Example 218, 4-Fluoro-2-(2-fluoro-4-iodo-phenylamino)-benzoic acid] | 51 nM | 
25 | Cc1cc(I)ccc1Nc1cc(F)ccc1C(=O)NCCCN1CCN(CCO)CC1 [Example 44, 4-Fluoro-N-{3-[4-(2-hydroxy-ethyl)-piperazin-1-yl]-propyl}-2-(4-iodo-2-methyl-phenylamino)-benzamide] | 1480 nM | 
26 | Cc1cc(I)ccc1Nc1ccc([N+](=O)[O-])cc1C(=O)O [Example 11, 2-(4-Iodo-2-methyl-phenylamino)-5-nitro-benzoic acid] | 128 nM | 
27 | Cc1cc(I)ccc1Nc1cc(F)ccc1CO [Example 49, 4-Fluoro-2-(4-iodo-2-methyl-phenylamino)-benzyl alcohol] | 418 nM | IC50 (MAP kinase): 3000 nM
28 | O=C(O)c1ccc([N+](=O)[O-])cc1Nc1ccc(I)cc1Cl [Example 215, 2-(2-Chloro-4-iodo-phenylamino)-4-nitro-benzoic acid] | 31 nM | 
29 | Cc1cc(I)ccc1Nc1cc(F)ccc1C(=O)N(C)C [Example 36, 4-Fluoro-2-(4-iodo-2-methyl-phenylamino)-N,N-dimethyl-benzamide] | 129 nM | 
30 | Cc1cc(I)ccc1Nc1c(F)cc(C(=O)O)c(F)c1F [Example 22, 2,3 ,5 -Trifluoro-4-(4-iodo-2-methyl-phenylamino)-benzoic acid] | 1580 nM | inhibition at 30 µM (MAP kinase): 30%
31 | Cc1cc(I)ccc1Nc1ccc(F)cc1C(=O)N(C)c1ccccc1 [Example 194, 5-Fluoro-2-(4-iodo-2-methyl-phenylamino)-N-methyl-N-phenyl-benzamide] | 4950 nM | 
32 | CNC(=O)c1ccc(F)cc1Nc1ccc(I)cc1C [Example 34, 4-Fluoro-2-(4-iodo-2-methyl-phenylamino)-N-methyl-benzamide] | 98 nM | 
33 | Cc1ccc(Nc2ccc(I)cc2C)c(C(=O)O)c1 [Example 28, 5-Methyl-2-(4-iodo-2-methyl-phenylamino)-benzoic acid] | 3670 nM | 
34 | Cc1cc(I)ccc1Nc1ccc(Br)cc1C(=O)NCCO [Example 42, 5-Bromo-N-(2-hydroxy-ethyl)-2-(4-iodo-2-methyl-phenylamino)-benzamide] | 920 nM | 
35 | Cc1cc(I)ccc1Nc1ccc(F)cc1C(=O)O [Example 20, 5-Fluoro-2-(4-iodo-2-methyl-phenylamino)-benzoic acid] | 557 nM | 
